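96-well plates; 48 h exposure; 5 concentrations. Endpoints by linear interpolation between flanking doses. Not reached: highest tested concentration assigned. GI50: concentration for 50% inhibition of growth. TGI is the concentration that stops growth completely.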
Tests used:
Experiment in all cases: growth of human tumour cells (NCI), 48 h
CCRF-CEM leukemia = test system: CCRF-CEM leukemia
UACC-257 melanoma = test system: UACC-257 melanoma
SK-MEL-5 melanoma = test system: SK-MEL-5 melanoma
MCF7 breast = test system: MCF7 breast
OVCAR-4 ovarian = test system: OVCAR-4 ovarian
SR leukemia = test system: SR leukemia
SF-539 CNS = test system: SF-539 CNS
RXF 393 renal = test system: RXF 393 renal
ACHN renal = test system: ACHN renal
MOLT-4 leukemia = test system: MOLT-4 leukemia

Compound	GI50 (CCRF-CEM leukemia)	TGI (CCRF-CEM leukemia)	GI50 (UACC-257 melanoma)	TGI (UACC-257 melanoma)	GI50 (SK-MEL-5 melanoma)	TGI (SK-MEL-5 melanoma)	GI50 (MCF7 breast)	TGI (MCF7 breast)	GI50 (OVCAR-4 ovarian)	TGI (OVCAR-4 ovarian)	GI50 (SR leukemia)	TGI (SR leukemia)	GI50 (SF-539 CNS)	TGI (SF-539 CNS)	GI50 (RXF 393 renal)	TGI (RXF 393 renal)	GI50 (ACHN renal)	TGI (ACHN renal)	TGI (MOLT-4 leukemia)	GI50 (MOLT-4 leukemia)
CC(=O)CC/C=C(\C)[C@H](O)[C@H](C)C(=O)O[C@H]1C[C@H](C)C=C2C=C[C@@]3(C)O[C@@H](O)CC(=O)[C@]3(C)[C@H]21	0.514 µM	4.83 µM	0.589 µM	4.48 µM	0.598 µM	2.08 µM	0.5 µM	6.19 µM	1.78 µM	6.05 µM	0.362 µM	12 µM	0.366 µM	2.37 µM	0.233 µM	0.867 µM	0.339 µM	2 µM	–	–
CC1=NN(C(=O)Nc2ccc(Cl)cc2)C(=O)C2CCC(=O)N12 (stereo unspecified)	–	> 100 µM	–	> 100 µM	–	> 100 µM	–	–	–	> 100 µM	–	> 100 µM	–	> 100 µM	–	> 100 µM	–	> 100 µM	> 100 µM	–
N#CC1=C(N)NC(=S)NC12Nc1ccccc1S2 (stereo unspecified)	15.1 µM	53.3 µM	29 µM	> 100 µM	19.6 µM	54.9 µM	–	–	81.4 µM	> 100 µM	15.8 µM	46.8 µM	14.7 µM	41.4 µM	33.8 µM	> 100 µM	21.8 µM	74.3 µM	> 100 µM	28.8 µM
Cn1cc(-c2nc(-c3c[nH]c4ncccc34)cs2)c2ccccc21	24.1 µM	> 100 µM	66.3 µM	> 100 µM	0.595 µM	> 100 µM	0.401 µM	26.1 µM	0.117 µM	> 100 µM	3.72 µM	> 100 µM	48.7 µM	> 100 µM	17.9 µM	> 100 µM	31.7 µM	> 100 µM	> 100 µM	23 µM
O=C1C=CC(=C(c2ccccc2)c2ccc(O)cc2)C=C1	–	> 100 µM	–	31.7 µM	–	26.4 µM	–	37.1 µM	–	30.2 µM	–	40.8 µM	–	30.8 µM	–	30.5 µM	–	39.2 µM	> 100 µM	–
COC(=O)c1ccc(/C=C(\c2ccc([N+](=O)[O-])o2)S(=O)(=O)c2ccc(NC(C)=O)cc2)o1	–	–	–	4.54 µM	–	13.5 µM	–	29.3 µM	–	4.67 µM	–	4.32 µM	–	15.2 µM	–	25.7 µM	–	11.1 µM	7.76 µM	–
NS(=O)(=O)c1ccc(NC(=O)Cc2nc3ccccc3s2)cc1	–	47.3 µM	–	29.6 µM	–	34.5 µM	–	–	–	34.9 µM	–	71 µM	–	32.3 µM	–	32.6 µM	–	29.3 µM	58.6 µM	–
O=C1CC(c2ccccc2)Cc2nc3ccc(Br)cc3cc21 (stereo unspecified)	0.0492 µM	> 100 µM	23.6 µM	> 100 µM	0.342 µM	2.22 µM	2.75 µM	> 100 µM	6.93 µM	> 100 µM	0.0855 µM	> 36.8 µM	0.226 µM	0.693 µM	–	–	0.498 µM	> 100 µM	> 100 µM	0.0639 µM
CCN(CC)CC(C)C(=O)/C=C/c1ccc(C)cc1 (stereo unspecified)	–	16.1 µM	–	4.1 µM	–	17 µM	–	–	–	4.26 µM	–	8.19 µM	–	3.85 µM	–	4.31 µM	–	4.36 µM	7.07 µM	–
CSc1nc2nn(Cc3ccccc3)cc2c(=O)[nH]1	–	> 100 µM	–	> 100 µM	–	> 100 µM	–	–	–	> 100 µM	–	> 100 µM	–	> 100 µM	–	> 100 µM	–	> 100 µM	> 100 µM	–
CCCCNS(=O)(=O)c1n[nH]c(=O)[nH]c1=O	–	35.7 µM	–	–	–	> 100 µM	–	> 100 µM	–	> 100 µM	–	> 100 µM	–	> 100 µM	–	> 100 µM	–	> 100 µM	> 100 µM	–
Oc1ccc2c3c1OC1c4[nH]ncc4C[C@H]4[C@@H](C2)N(CC2CC2)CC[C@]314 (stereo partly specified)	–	> 100 µM	–	> 100 µM	–	> 100 µM	–	> 100 µM	–	> 100 µM	–	> 100 µM	–	–	–	> 100 µM	–	> 100 µM	> 100 µM	–
Cc1cnc2oc3ccc(O)cc3c2c1-c1ccccc1	> 100 µM	> 100 µM	> 100 µM	> 100 µM	35.8 µM	> 100 µM	41 µM	> 100 µM	> 100 µM	> 100 µM	> 100 µM	> 100 µM	16.1 µM	37.5 µM	18.5 µM	67.3 µM	18.8 µM	> 100 µM	–	–
O=C(/C=C/c1ccccc1O)c1ccc([N+](=O)[O-])cc1	–	66.1 µM	–	> 100 µM	–	49.8 µM	–	–	–	25.1 µM	–	63.6 µM	–	29.2 µM	–	24.3 µM	–	26.4 µM	76.6 µM	–
COC(=O)c1ncc2c(=O)[nH]c3ccccc3c2c1C(=O)OC	–	> 100 µM	–	> 100 µM	–	> 100 µM	–	–	–	> 100 µM	–	> 100 µM	–	> 100 µM	–	> 100 µM	–	> 100 µM	> 100 µM	–
COc1ccc(NC2=C(I)C(=O)c3ncccc3C2=O)cc1	2.04 µM	6.55 µM	1.35 µM	2.72 µM	0.347 µM	1.42 µM	–	–	1.12 µM	2.35 µM	0.546 µM	9.61 µM	1.41 µM	2.75 µM	1.41 µM	2.82 µM	1.81 µM	8.53 µM	5.79 µM	2.06 µM
C/C(=N\OCC(O)CNCCSCc1ccccc1)c1ccccc1Cl (stereo unspecified)	–	72.9 µM	–	35.6 µM	–	33.4 µM	–	44.6 µM	–	–	–	78.3 µM	–	36.9 µM	–	37 µM	–	37.8 µM	> 100 µM	–
CCCCCCn1c(SC)nc(COC(=O)NC)c1COC(=O)NC	–	–	–	37.8 µM	–	30.3 µM	–	38 µM	–	21.4 µM	–	71.7 µM	–	32.4 µM	–	–	–	30.5 µM	53.8 µM	–
O=C(O)c1ccc(C(O)(c2ccccc2)c2ccccc2)cc1	–	> 100 µM	–	> 100 µM	–	> 100 µM	–	> 100 µM	–	> 100 µM	–	> 100 µM	–	–	–	–	–	> 100 µM	> 100 µM	–
